Measurements as given in patent US10556844B2, “Pyrazole compounds as nitrification inhibitors” (BASF SE, priority 2015, dated 2020).

Test system: nitrification
Experiment: Inhibition of nitrification in field soil (48 well plate, ammonium sulfate, colour reaction read at 540 nm)
Conditions: for IN (best inhibition value obtained for a compound): soil, room temperature, up to 72 hrs
Method: The compounds of the invention have been tested as follows in terms of the inhibition of nitrification:
Soil was sampled fresh from a field (e.g. Limburgerhof), dried and sieved through a 500 μm sieve. Approximately 200 mg of soil were placed into each well of a 48 well plate. Compounds, or DMSO alone, were added at a concentration of 10 ppm, dissolved in 1% DMSO. 6 μmol ammonium sulfate was added per well as well as 4.8 mg NaClO3.
Subsequently, the samples were incubated at room temperature for up to 72 hrs. After the incubation period 64 mg KCl were added and mixed. 25 μl of the supernatant were placed into a fresh plate and 260 μl of a color reaction solution (from Merck Nr 1.11799.0100) were added.
Measurements were taken with a Tecan plate Reader at 540 nm wavelength.
Inhibition is calculated as x=% activity compared to control, and converted to 100-x to give the value of inhibition, rather than activity.

SMILES | IN (best inhibition value obtained for a compound) (dose of 10 ppm) | also measured
C=C=Cn1ccc(C)n1 [Compound B-5] | >10% | 
C#CCn1ncc2c1C(=O)c1ccccc1C2=O [Compound A-33] | 44% | 
C#CCn1nc(O)c2ccccc21 [Compound A-14] | 59% | 
C#Cc1ccccc1 [Phenylacetylene, phenylacetylene, reference compound] |  | IN (inhibition value) (reference compound, same conditions, dose of 10 ppm): 7%
C=C=Cn1nccc1C [Compound B-6] | >10% | 
C#CCn1nc(C)c(OC(C)=O)c1C [Compound A-44] |  | IN (best inhibition value obtained for a compound) (dose of 5±1 ppm): 59%
C#CCn1cccn1 [Compound A-19] | 45% | 
C#CCn1ncc(C(=O)O)c1C [Compound A-42] | 17% | 
